In PubChem BioAssay (NCI):
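These data come from cells grown in 96-well plates and exposed to compound for 48 hours at five concentrations. TGI is the concentration that stops growth completely.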

Legend:
Assay in all cases: NCI tumour cell line growth inhibition, 48 h
786-0 renal = test system: 786-0 renal
A549 NSCLC = test system: A549 NSCLC
ACHN renal = test system: ACHN renal
CCRF-CEM leukemia = test system: CCRF-CEM leukemia
COLO 205 colon = test system: COLO 205 colon
DLD-1 colon = test system: DLD-1 colon
DMS 114 small cell lung = test system: DMS 114 small cell lung
DMS 273 small cell lung = test system: DMS 273 small cell lung
EKVX NSCLC = test system: EKVX NSCLC
HCC-2998 colon = test system: HCC-2998 colon
HCT-116 colon = test system: HCT-116 colon
HCT-15 colon = test system: HCT-15 colon
HL-60(TB) leukemia = test system: HL-60(TB) leukemia
HOP-62 NSCLC = test system: HOP-62 NSCLC
HOP-92 NSCLC = test system: HOP-92 NSCLC
HT29 colon = test system: HT29 colon
IGROV1 ovarian = test system: IGROV1 ovarian
K-562 leukemia = test system: K-562 leukemia
KM12 colon = test system: KM12 colon
KM20L2 colon = test system: KM20L2 colon
LXFL 529 NSCLC = test system: LXFL 529 NSCLC
M14 melanoma = test system: M14 melanoma
M19-MEL melanoma = test system: M19-MEL melanoma
MALME-3M melanoma = test system: MALME-3M melanoma
MOLT-4 leukemia = test system: MOLT-4 leukemia
NCI-H23 lung = test system: NCI-H23 lung
NCI-H460 lung = test system: NCI-H460 lung
NCI-H522 lung = test system: NCI-H522 lung
OVCAR-3 ovarian = test system: OVCAR-3 ovarian
OVCAR-4 ovarian = test system: OVCAR-4 ovarian
OVCAR-5 ovarian = test system: OVCAR-5 ovarian
OVCAR-8 ovarian = test system: OVCAR-8 ovarian
RPMI-8226 leukemia = test system: RPMI-8226 leukemia
RXF 393 renal = test system: RXF 393 renal
RXF-631 renal = test system: RXF-631 renal
SF-268 CNS = test system: SF-268 CNS
SF-295 CNS = test system: SF-295 CNS
SF-539 CNS = test system: SF-539 CNS
SK-MEL-2 melanoma = test system: SK-MEL-2 melanoma
SK-MEL-28 melanoma = test system: SK-MEL-28 melanoma
SK-MEL-5 melanoma = test system: SK-MEL-5 melanoma
SN12C renal = test system: SN12C renal
SNB-19 CNS = test system: SNB-19 CNS
SNB-78 CNS = test system: SNB-78 CNS
SW-620 colon = test system: SW-620 colon
TK-10 renal = test system: TK-10 renal
U251 CNS = test system: U251 CNS
UACC-257 melanoma = test system: UACC-257 melanoma
UACC-62 melanoma = test system: UACC-62 melanoma
UO-31 renal = test system: UO-31 renal
A498 renal = test system: A498 renal
LOX IMVI melanoma = test system: LOX IMVI melanoma
NCI-H226 lung = test system: NCI-H226 lung
SK-OV-3 ovarian = test system: SK-OV-3 ovarian
SNB-75 CNS = test system: SNB-75 CNS

SMILES: O=C1C(c2ccccc2)=C(c2ccccc2)C(c2ccc(CCCCCCc3ccc(C4=C(c5ccccc5)C(=O)C(c5ccccc5)=C4c4ccccc4)cc3)cc2)=C1c1ccccc1
- TGI (786-0 renal): > 100 µM
- TGI (A549 NSCLC): > 100 µM
- TGI (ACHN renal): > 100 µM
- TGI (CCRF-CEM leukemia): > 100 µM
- TGI (COLO 205 colon): > 100 µM
- TGI (DLD-1 colon): > 100 µM
- TGI (DMS 114 small cell lung): > 100 µM
- TGI (DMS 273 small cell lung): > 100 µM
- TGI (EKVX NSCLC): > 100 µM
- TGI (HCC-2998 colon): > 100 µM
- TGI (HCT-116 colon): > 100 µM
- TGI (HCT-15 colon): > 100 µM
- TGI (HL-60(TB) leukemia): > 100 µM
- TGI (HOP-62 NSCLC): > 100 µM
- TGI (HOP-92 NSCLC): > 100 µM
- TGI (HT29 colon): > 100 µM
- TGI (IGROV1 ovarian): > 100 µM
- TGI (K-562 leukemia): > 100 µM
- TGI (KM12 colon): > 100 µM
- TGI (KM20L2 colon): > 100 µM
- TGI (LXFL 529 NSCLC): > 100 µM
- TGI (M14 melanoma): > 100 µM
- TGI (M19-MEL melanoma): > 100 µM
- TGI (MALME-3M melanoma): > 100 µM
- TGI (MOLT-4 leukemia): > 100 µM
- TGI (NCI-H23 lung): > 100 µM
- TGI (NCI-H460 lung): > 100 µM
- TGI (NCI-H522 lung): > 100 µM
- TGI (OVCAR-3 ovarian): > 100 µM
- TGI (OVCAR-4 ovarian): > 100 µM
- TGI (OVCAR-5 ovarian): > 100 µM
- TGI (OVCAR-8 ovarian): > 100 µM
- TGI (RPMI-8226 leukemia): > 100 µM
- TGI (RXF 393 renal): 79.7 µM
- TGI (RXF-631 renal): > 100 µM
- TGI (SF-268 CNS): > 100 µM
- TGI (SF-295 CNS): > 100 µM
- TGI (SF-539 CNS): > 100 µM
- TGI (SK-MEL-2 melanoma): > 100 µM
- TGI (SK-MEL-28 melanoma): > 100 µM
- TGI (SK-MEL-5 melanoma): > 100 µM
- TGI (SN12C renal): > 100 µM
- TGI (SNB-19 CNS): > 100 µM
- TGI (SNB-78 CNS): > 100 µM
- TGI (SW-620 colon): > 100 µM
- TGI (TK-10 renal): > 100 µM
- TGI (U251 CNS): > 100 µM
- TGI (UACC-257 melanoma): > 100 µM
- TGI (UACC-62 melanoma): > 100 µM
- TGI (UO-31 renal): > 100 µM

SMILES: COc1ccc(NC(=O)C(=O)C2NC(=S)NC2=O)c(OC)c1 (stereo unspecified)
- TGI (786-0 renal): > 100 µM
- TGI (A498 renal): > 100 µM
- TGI (A549 NSCLC): > 100 µM
- TGI (ACHN renal): > 100 µM
- TGI (COLO 205 colon): > 100 µM
- TGI (DLD-1 colon): > 100 µM
- TGI (DMS 114 small cell lung): > 100 µM
- TGI (DMS 273 small cell lung): > 100 µM
- TGI (EKVX NSCLC): > 100 µM
- TGI (HCC-2998 colon): > 100 µM
- TGI (HCT-116 colon): > 100 µM
- TGI (HCT-15 colon): > 100 µM
- TGI (HL-60(TB) leukemia): > 100 µM
- TGI (HOP-62 NSCLC): > 100 µM
- TGI (HOP-92 NSCLC): > 100 µM
- TGI (HT29 colon): > 100 µM
- TGI (IGROV1 ovarian): > 100 µM
- TGI (K-562 leukemia): > 100 µM
- TGI (KM12 colon): > 100 µM
- TGI (KM20L2 colon): > 100 µM
- TGI (LOX IMVI melanoma): > 100 µM
- TGI (LXFL 529 NSCLC): > 100 µM
- TGI (M14 melanoma): > 100 µM
- TGI (M19-MEL melanoma): > 100 µM
- TGI (MALME-3M melanoma): > 100 µM
- TGI (MOLT-4 leukemia): > 100 µM
- TGI (NCI-H226 lung): > 100 µM
- TGI (NCI-H23 lung): > 100 µM
- TGI (NCI-H460 lung): > 100 µM
- TGI (OVCAR-3 ovarian): > 100 µM
- TGI (OVCAR-4 ovarian): > 100 µM
- TGI (OVCAR-8 ovarian): > 100 µM
- TGI (RPMI-8226 leukemia): > 100 µM
- TGI (RXF 393 renal): > 100 µM
- TGI (RXF-631 renal): > 100 µM
- TGI (SF-268 CNS): > 100 µM
- TGI (SF-295 CNS): > 100 µM
- TGI (SF-539 CNS): > 100 µM
- TGI (SK-MEL-2 melanoma): > 100 µM
- TGI (SK-MEL-28 melanoma): > 100 µM
- TGI (SK-OV-3 ovarian): > 100 µM
- TGI (SN12C renal): > 100 µM
- TGI (SNB-19 CNS): > 100 µM
- TGI (SNB-75 CNS): > 100 µM
- TGI (SNB-78 CNS): > 100 µM
- TGI (SW-620 colon): > 100 µM
- TGI (TK-10 renal): > 100 µM
- TGI (U251 CNS): > 100 µM
- TGI (UACC-257 melanoma): > 100 µM
- TGI (UACC-62 melanoma): > 100 µM
- TGI (UO-31 renal): > 100 µM
